Test results published in patent publication US20040197294A1, “Cosmetic and/or pharmaceutical preparations” (priority 2001, published 2004).
Like-named read-outs stand apart in the source and are kept apart here.

How the values were obtained:
pig's epidermis [1] = details: pH 5.5
Experimental: (§1) Dermatological compatibility was evaluated by determining the transepidermal water loss (TEWL) in a pig's epidermis. To this end, defined pieces of skin were treated with the various test solutions for 30 minutes at 40° C. and the TEWL value was gravimetrically determined. The test solutions were mixtures of 17% by weight Plantapon® PS 10 (sodium lauryl ether sulfate and Lauryl Glycoside, Cognis Dusseldorf) with 1.5% by weight fatty acid partial glycerides or glycerol ethers (see Table 1) in preservative-containing water (WAS 10% by weight). The pH was adjusted to 5.5 with citric acid.

pig's epidermis [2] = test: Dermatological compatibility: transepidermal water loss (TEWL), gravimetric; details: […] by weight partial glyceride or glycerol ether in 17% by weight Plantapon PS 10, pH 5.5; skin treated 30 minutes at 40° C.; lower = better compatibility
Experimental: as §1

| TEWL [%-rel] = [treated/untreated * 100] − 100% (pig's epidermis [1]) [%-rel] | TEWL [%-rel] = [treated/untreated * 100] − 100% (pig's epidermis [2]) [%-rel] | Molecule |
| --- | --- | --- |
| 22.0 | – | Isostearic acid mono/diglyceride (65:35) [Example 7] |
| 20.5 | – | Lauric acid mono/diglyceride (65:35) [Example 9] |
| – | 5.0 | CCCCCCCCOCC(O)CO (centres unmarked) [Example 2, Glycerol monocapryl ether (>90)] |
| – | 10.5 | CCCCCCCCCCCC(=O)OCC(O)CO (centres unmarked) [Example 10, Lauric acid monoglyceride (>90)] |
| – | 18.5 | Isostearic acid monoglyceride (>90) [Example 8] |
